Ki and Kd data for 18 compounds are collected here from patent publication US20120004230A1, “IMIDAZOLE DERIVATIVES” (priority 2006, published 2012).

T1 sequence (Q923Y8 whole entry): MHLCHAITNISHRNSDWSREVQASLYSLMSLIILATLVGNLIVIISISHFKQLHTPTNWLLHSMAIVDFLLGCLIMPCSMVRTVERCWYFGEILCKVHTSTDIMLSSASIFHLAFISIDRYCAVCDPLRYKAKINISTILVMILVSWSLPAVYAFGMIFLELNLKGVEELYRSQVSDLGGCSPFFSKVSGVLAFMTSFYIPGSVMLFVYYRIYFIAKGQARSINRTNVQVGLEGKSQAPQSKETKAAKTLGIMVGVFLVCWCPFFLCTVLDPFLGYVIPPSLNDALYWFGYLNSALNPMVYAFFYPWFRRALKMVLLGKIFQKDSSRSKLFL

The first assay concerns the target T1, TAAR1 (Mus musculus, UniProt Q923Y8).
T1 construct: expressed in transfected cells; host or cells: HEK293 cells (ATCC # CRL-1573), stably transfected with a pIRESneo2 expression plasmid; membranes prepared from them
Kind of assay: Radioligand binding to TAAR1, membranes of stably transfected HEK293 cells.
Conditions: not given
Here is the method:
For the construction of expression plasmids, the coding sequences of human, rat and mouse TAAR 1 were amplified from genomic DNA essentially as described by Lindemann et al. (2005) Genomics 85, 372-385. The Expand High Fidelity PCR System (Roche Diagnostics) was used with 1.5 mM Mg^2F and purified PCR products were cloned into pCR2.1-TOPO cloning vector (Invitrogen) following the instructions of the manufacturer. PCR products were subcloned into the pIRESneo2 vector (BD Clontech, Palo Alto, Calif.), and expression vectors were sequence verified before introduction in cell lines.
HEK293 cells (ATCC # CRL-1573) were cultured essentially as described in Lindemann et al. (2005) Genomics 85, 372-385. For the generation of stably transfected cell lines, HEK293 cells were transfected with the pIRESneo2 expression plasmids containing the TAAR coding sequences (described above) with Lipofectamine 2000 (Invitrogen) according to the instructions of the manufacturer, and 24 hours post transfection, the culture medium was supplemented with 1 mg/ml G418 (Sigma, Buchs, Switzerland). After a culture period of about 10 days, clones were isolated, expanded and tested for responsiveness to trace amines (all compounds purchased from Sigma) with the cAMP Biotrak Enzyme immunoassay (EIA) System (Amersham) following the non-acetylation EIA procedure provided by the manufacturer.
Cells at confluence were rinsed with ice-cold phosphate buffered saline without Ca^2+ and Mg^2+ containing 10 mM EDTA and pelleted by centrifugation at 1000 rpm for 5 minutes at 4° C. The pellet was then washed twice with ice-cold phosphate buffered saline and the cell pellet was frozen immediately by immersion in liquid nitrogen and stored until use at −80° C. The cell pellet was then suspended in 20 ml HEPES-NaOH (20 mM), pH 7.4 containing 10 mM EDTA, and homogenized with a Polytron (PT 3000, Kinematica) at 10,000 rpm for 10 seconds. The homogenate was centrifuged at 48,000×g for 30 minutes at 4° C. and the pellet resuspended in 20 ml HEPES-NaOH (20 mM), pH 7.4 containing 0.1 mM EDTA (buffer A), and homogenized with a Polytron at 10,000 rpm for 10 seconds. The homogenate was then centrifuged at 48,000×g for 30 minutes at 4° C. and the pellet resuspended in 20 ml buffer A, and homogenized with a Polytron at 10,000 rpm for 10 seconds. Protein concentration was determined by the method of Pierce (Rockford, Ill.). The homogenate was then centrifuged at 48,000×g for 10 minutes at 4° C., resuspended in HEPES-NaOH (20 mM), pH 7.0 including MgC12 (10 mM) and CaCl2 ([…]) (buffer B) at 200 μg protein per ml and homogenized with a Polytron at 10,000 rpm for 10 seconds.
Binding assay was performed at 4° C. in a final volume of 1 ml, and with an incubation time of 30 minutes. The radioligand [^3H]-rac-2-(1,2,3,4-tetrahydro-1-naphthyl)-2-imidazoline was used at a concentration equal to the calculated Kd value of 60 nM to give a total binding at around 0.1% of the total added radioligand concentration, and a specific binding which represented approximately 70-80% of the total binding. Non-specific binding was defined as the amount of [^3H]-rac-2-(1,2,3,4-tetrahydro-1-naphthyl)-2-imidazoline bound in the presence of the appropriate unlabelled ligand (10 μM). Competing ligands were tested in a wide range of concentrations ([…]). […] Each experiment was performed in duplicate. All incubations were terminated by rapid filtration through UniFilter-96 plates (Packard Instrument Company) and glass filter GF/C, pre-soaked for at least 2 hours in polyethylenimine 0.3%, and using a Filtermate 96 Cell Harvester (Packard Instrument Company). The tubes and filters were then washed 3 times with 1 ml aliquots of cold buffer B. Filters were not dried and soaked in Ultima gold (45 μl/well, Packard Instrument Company) and bound radioactivity was counted by a TopCount Microplate Scintillation Counter (Packard Instrument Company).
Usually Ki stands for the dissociation constant of the complex between target and ligand, obtained from inhibition or displacement. `CCC(Cc1cnc[nH]1)c1ccccc1` (stereo not drawn) [Example 1, 4-(2-Phenyl-butyl)-1H-imidazole] registered an inhibition constant (Ki) of 0.0609 µM. On the same count and under the same terms, the same measure for `Clc1ccccc1CCc1cnc[nH]1` [Example 5, 4-[2-(2-Chloro-phenyl)-ethyl]-1H-imidazole]: 0.0059 µM; for `COc1ccccc1CCc1cnc[nH]1` [Example 8, 4-[2-(2-Methoxy-phenyl)-ethyl]-1H-imidazole]: 0.0843 µM; for `Clc1cccc(CCc2cnc[nH]2)c1` [Example 11, 4-[2-(3-Chloro-phenyl)-ethyl]-1H-imidazole]: 0.0025 µM. Same read-out and setting: the figure for `Fc1cccc(CCc2cnc[nH]2)c1` [Example 12, 4-[2-(3-Fluoro-phenyl)-ethyl]-1H-imidazole] is 0.0097 µM. Same read-out and setting: the same measure for `FC(F)(F)c1cccc(CCc2cnc[nH]2)c1` [Example 13, 4-[2-(3-Trifluoromethyl-phenyl)-ethyl]-1H-imidazole]: 0.0106 µM; for `COc1cccc(CCc2cnc[nH]2)c1` [Example 14, 4-[2-(3-Methoxy-phenyl)-ethyl]-1H-imidazole]: 0.0606 µM; for `Clc1ccc(CCc2cnc[nH]2)cc1` [Example 16, 4-[2-(4-Chloro-phenyl)-ethyl]-1H-imidazole]: 0.0172 µM.

`Clc1cc(Cl)cc(CCc2cnc[nH]2)c1` [Example 17, 4-[2-(3,5-Dichloro-phenyl)-ethyl]-1H-imidazole] showed a Ki of 0.0019 µM.

Staying with this assay, now noted: mouse TAAR1; radioligand [3H]-rac-2-(1,2,3,4-tetrahydro-1-naphthyl)-2-imidazoline at 60 nM; 4° C., 30 minutes; read-out: Ki (μM) mouse.
As to `Clc1cccc(OCc2cnc[nH]2)c1Cl` [Example 20, 4-(2,3-Dichloro-phenoxymethyl)-1H-imidazole], the Ki was 0.043 µM.

Take `Fc1cccc(OCc2cnc[nH]2)c1F` [Example 35, 4-(2,3-Difluoro-phenoxymethyl)-1H-imidazole]: the Ki amounted to 0.0889 µM. Still for that read-out and setting: the figure for `Clc1ccc(OCc2cnc[nH]2)cc1Cl` [Example 36, 4-(3,4-Dichloro-phenoxymethyl)-1H-imidazole] is 0.0227 µM; for `Fc1cc(OCc2cnc[nH]2)ccc1Cl` [Example 37, 4-(4-Chloro-3-fluoro-phenoxymethyl)-1H-imidazole] it is 0.0802 µM; for `c1ncc(COc2ccc3ccoc3c2)[nH]1` [Example 39, 5-(Benzofuran-6-yloxymethyl)-1H-imidazole] it is 0.0684 µM. The same measure, in the same setting: the figure for `Clc1cccc(SCc2cnc[nH]2)c1Cl` [Example 42, 5-(2,3-Dichloro-phenylsulfanylmethyl)-1-imidazole] is 0.0041 µM. For `Cc1[nH]cnc1CSc1ccc(Cl)cc1` [Example 46, 4-(4-Chloro-phenylsulfanylmethyl)-5-methyl-1H-imidazole], the Ki was 0.0146 µM. The same measure, in the same setting: the figure for `c1ccc2cc(SCc3c[nH]cn3)ccc2c1` [Example 47, 4-(Naphthalen-2-ylsulfanylmethyl)-1H-imidazole] is 0.0103 µM.

The assay is the same for the next values; noted with them: radioligand used at a concentration equal to its calculated Kd; TAAR1 species not given.
The term Kd denotes the concentration at which binding is half-saturated. For `c1ccc2c(c1)CCCC2C1=NCCN1` (racemic) [[^3H]-rac-2-(1,2,3,4-tetrahydro-1-naphthyl)-2-imidazoline, reference compound], the Kd was 60 nM.
